Test results reported in patent US20150132342A1, “NOVEL IMMUNE ACTIVATORS: SUBSTITUTE 4-AMINOQUINAZOLINES” (The Regents of the University of California, priority 2013, published 2015).

Key:
Format in all cases: cell-based
human PBMC = experiment: IL-8 release in human PBMC (ELISA)
Method: In vitro activities in human peripheral blood mononuclear cells (PBMC). Human PBMC were isolated from buffy coats obtained from the San Diego Blood Bank (San Diego, Calif.) as described previously.^5,6 PBMC (1×10^6/mL) were incubated with various compounds in complete RPMI (Omega Scientific) for 18 h at 37° C., 5% CO2 and culture supernatants were collected. The levels of IL-8 in the supernatants were determined by ELISA (BD Biosciences).

HepG2 cells = experiment: MTT assay in HepG2 cells; settings: compounds tested at 10 μM; normalized with OD570-650 of vehicle treatment; in % (unit assumed)
mouse BMDC = experiment: MTT viability of mouse BMDC; settings: 10 μM, 18 h incubation
mBMDC = experiment: IL-6 induction in mouse bone marrow derived dendritic cells (wild type or gene deficient)
From the text: (§1) Animals. Seven to 9 week-old C57BL/6 (wild type, WT) and Cd14^−/− (C57BL/6 background) mice were purchased from the Jackson Laboratories (Bar Harbor, Mass.). Tlr4^−/− mice (C57BL/6 background) were a gift from Dr. Shizuo Akira (Osaka University, Japan) and were backcrossed for 10 generations onto the C57BL/6 background at University of California, San Diego (UCSD). MD-2^−/− mice (C57BL/6 background) were originally generated by Dr. K. Miyake (University of Tokyo, Tokyo, Japan) and were kindly provided by Dr. L. Hajjar (University of Washington, Seattle, Wash.). Human TLR4 transgenic mice on murine TLR4/MD-2 null C57BL/6 background were kindly provided by Dr. L. Hajjar.^3 All animal experiments were approved by the UCSD Institutional Animal Care and Use Committee.
In vitro cytokine induction in bone marrow derived dendritic cells (BMDC) and macrophages (BMDM). BMDC or BMDM were prepared from C57BL/6 mice as described.^4 BMDC or BMDM (10^5 cells per well) were plated in 96-well plates in 200 μl complete RPMI1640 (Omega Scientific, Tarzana, Calif.) supplemented with 10% fetal calf serum (Sigma Aldrich), 100 U/mL penicillin and 100 μg/mL streptomycin (Life Technologies). The cells were incubated with graded concentrations of the compounds for 18 h at 37° C., 5% CO2. After 18 h incubation, the cell culture supernatants were collected. LPS (100 ng/mL, L2654, E coli; B6, Sigma) or MPLA (1 μg/mL synthetic MPLA, Invivogen) were used as positive controls. The levels of IL-6 or IP-10 in the culture supernatants were determined by ELISA (BD Biosciences, La Jolla, Calif.).^5 Finally, all levels of cytokine release were normalized to those of LPSstimulation within each experiment, set at 100.

TLR4/MD-2/CD14 = target: T1, TLR4/MD-2/CD14 (Homo sapiens, UniProt O00206+Q9Y6Y9); experiment: hTLR4 HEK Blue reporter cells, NF-κB SEAP secretion (QuantiBlue OD630)
T1 construct: host or cells: HEK293 (HEK Blue hTLR4)
T1 sequence (O00206 24-839): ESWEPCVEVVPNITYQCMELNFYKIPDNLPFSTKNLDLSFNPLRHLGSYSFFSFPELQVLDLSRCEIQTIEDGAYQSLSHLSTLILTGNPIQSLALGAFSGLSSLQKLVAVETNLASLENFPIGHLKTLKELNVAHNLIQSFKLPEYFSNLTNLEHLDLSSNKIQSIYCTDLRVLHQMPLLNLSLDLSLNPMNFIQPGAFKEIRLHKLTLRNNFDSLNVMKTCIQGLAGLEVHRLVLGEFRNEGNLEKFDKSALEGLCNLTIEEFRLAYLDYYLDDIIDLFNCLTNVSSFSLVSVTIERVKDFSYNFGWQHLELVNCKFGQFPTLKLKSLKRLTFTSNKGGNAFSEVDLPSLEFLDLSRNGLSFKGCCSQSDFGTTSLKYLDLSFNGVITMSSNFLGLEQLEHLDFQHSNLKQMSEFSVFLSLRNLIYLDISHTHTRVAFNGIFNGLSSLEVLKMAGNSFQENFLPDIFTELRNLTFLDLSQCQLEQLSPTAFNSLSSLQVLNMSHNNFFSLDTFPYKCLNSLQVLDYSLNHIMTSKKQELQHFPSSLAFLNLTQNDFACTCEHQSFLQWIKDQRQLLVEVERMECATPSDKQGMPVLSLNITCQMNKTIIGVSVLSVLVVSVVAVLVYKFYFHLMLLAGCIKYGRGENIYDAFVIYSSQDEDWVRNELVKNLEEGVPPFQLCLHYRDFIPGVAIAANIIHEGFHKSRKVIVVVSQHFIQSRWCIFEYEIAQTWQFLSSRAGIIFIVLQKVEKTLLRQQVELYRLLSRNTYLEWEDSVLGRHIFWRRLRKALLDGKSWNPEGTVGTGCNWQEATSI
T1 sequence (Q9Y6Y9 19-160): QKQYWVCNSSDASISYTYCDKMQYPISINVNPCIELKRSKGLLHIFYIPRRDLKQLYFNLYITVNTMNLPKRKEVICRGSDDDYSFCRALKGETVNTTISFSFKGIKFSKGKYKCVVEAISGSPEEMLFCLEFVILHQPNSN
Method: In vitro assays using TLR reporter cell lines. Murine or humanTLR4 HEK Blue™ cells (Invivogen, 2.5×10^4 cells per well of a 96 well plate), or NF-κB/SEAPorter™ HEK 293 cells (Imgenex, San Diego, Calif.) for human TLR2, TLR3, TLR5, TLR7, TLR8, or TLR9 (5×10^4 cells per well of 96 well plate) were incubated with graded doses of the test compound. The culture supernatants were harvested after a 20-24 h incubation period. Secreted alkaline phosphatase (SEAP) activity in the supernatants was determined by a colorimetric assay, using either the SEAPorter Assay Kit (Imgenex, San Diego, Calif.), with absorbance read at 405 nm, or QuantiBlue (Invivogen), with absorbance read at 630 nm. In some experiments, graded concentrations of LPS-RS ([…], Invivogen) were used to test TLR4-specific binding of the hit compound.

human TLR4/MD-2 = target: T2, human TLR4/MD-2 (Homo sapiens, UniProt O00206+Q9Y6Y9); experiment: BMDM from transgenic mice expressing human TLR4/MD-2 (IL-6, IP-10); settings: BMDM from human TLR4/MD-2 transgenic mice deficient for murine TLR4/MD-2
T2 construct: expressed in transfected cells; host or cells: bone marrow derived macrophages of human TLR4 transgenic mice on a murine TLR4/MD-2 null C57BL/6 background (gift of Dr. L. Hajjar)
T2 sequence (O00206 24-839): as the sequence (O00206 24-839) above
T2 sequence (Q9Y6Y9 19-160): as the sequence (Q9Y6Y9 19-160) above
From the text: as §1
In vitro cytokine induction in bone marrow derived dendritic cells (BMDC) and macrophages (BMDM). […] The levels of IL-6 or IP-10 in the culture supernatants were determined by ELISA (BD Biosciences, La Jolla, Calif.).^5 Finally, all levels of cytokine release were normalized to those of LPSstimulation within each experiment, set at 100.

HepG2 MT (HepG2 cells): 93.5 | hTLR4 0.5 μM (TLR4/MD-2/CD14; 0.5 μM, Quantiblue OD630 of hTLR4 HEK Blue cells, normalized to LPS positive control=100): 49.1 | NF-κB activation induced by compound in presence of competitive antagonist LPS-RS (TLR4/MD-2/CD14; 10 μM compound, LPS-RS 12, 111, 1000 ng/mL, dose dependent): inhibited | Activation of transgenic human TLR4/MD-2 complex relative to mouse TLR4/MD-2 (human TLR4/MD-2): to a greater extent
SMILES: CCOC(=O)c1nc(Nc2cc(Oc3ccccc3)cc([N+](=O)[O-])c2)c2ccccc2n1 [Compound 1a, Ethyl 4-((3-nitro-5-phenoxyphenyl)amino)quinazoline-2-carboxylate]
IL-8 release (% of LPS control) at 0.5 µM (human PBMC; Homo sapiens, PBMC, 18 h, 0.5 μM, IL-8 release, normalized to LPS positive control=100): 22.2% | Concentration inducing detectable levels of IL-8 (human PBMC; hPBMC, graded concentrations): below 1 μM | IL-8 release in presence of polymyxin B (human PBMC; polymyxin B 10 μg/mL, overnight): not reduced | Viability by MTT assay (mouse BMDC): 117±2.6% | Dependence of IL-6 production on CD14 and MD-2 (mBMDC; 10 μM, mBMDC genetically deficient for CD14 or MD-2): not to be dependent on CD14, but dependent on MD-2 | IL-6 secretion induced in mBMDC on genetic disruption of TLR4 (mBMDC; 10 μM, wild type vs TLR4 deficient mice): completely abrogated | Concentration inducing detectable levels of IL-6 (mBMDC; mBMDC, graded concentrations, compared with IL-8 in hPBMC): higher concentrations were required
